Laboratory results reported in patent publication US9044437B2, “Method for treating alzheimer's disease using pharmacological chaperones to increase the activity of gangliosidases” (Amicus Therapeutics, Inc., priority 2009, dated 2015).
Like-named read-outs stand apart in the source and are kept apart here.

How the values were obtained:
[1] = biological target: T1, wild-type β-Hex (Mus musculus, UniProt P20060); experiment: Cellular β-Hex levels in N2A mouse neuroblastomas (HexB immunoblot); assay type: cell-based; settings: 10 μM, 3 days
T1 construct: increase in endogenous wild-type β-hexosaminidase levels and sAPPα shedding in N2A mouse neuroblastomas; endogenous in cells; host or cells: N2A mouse neuroblastoma cells
T1 sequence (P20060 32-536): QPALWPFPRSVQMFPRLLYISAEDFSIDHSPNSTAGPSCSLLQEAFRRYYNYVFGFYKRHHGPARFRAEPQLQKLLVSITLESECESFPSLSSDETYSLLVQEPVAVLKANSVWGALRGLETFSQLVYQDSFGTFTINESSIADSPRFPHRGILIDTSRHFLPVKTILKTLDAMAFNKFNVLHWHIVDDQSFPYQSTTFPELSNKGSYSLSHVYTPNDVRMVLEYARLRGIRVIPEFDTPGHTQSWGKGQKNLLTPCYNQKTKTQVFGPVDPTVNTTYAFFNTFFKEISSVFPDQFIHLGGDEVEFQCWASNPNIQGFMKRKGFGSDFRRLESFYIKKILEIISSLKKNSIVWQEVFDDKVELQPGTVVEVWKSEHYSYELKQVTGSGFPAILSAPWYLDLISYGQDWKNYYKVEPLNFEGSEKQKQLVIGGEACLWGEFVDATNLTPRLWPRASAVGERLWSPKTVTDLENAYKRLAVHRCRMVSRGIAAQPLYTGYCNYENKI
Description: (§1) The data shown in FIG. 4 was generated as follows. N2A mouse neuroblastomas were treated for 3 days either with no compound or with 10 μM AdDNJ, 10 μM NGT or 10 μM DGJ. The cells were scraped, harvested by centrifugation, and the cell pellet was solubilized using RIPA buffer (1% TX100, 0.5% Taurodeoxycholate, and 0.1% SDS in TBS plus protease inhibitors). The cell lysate was immunoblotted using a rabbit polyclonal antibody specific for HexB (Abcam). The levels of sAPPα were determined by immunoblotting a small fraction (30 μl) of the growth media using 22C11 antibody (Millipore).
(§2) FIG. 4A) Treatment of N2A mouse neuroblastomas with 10 μM NGT and AdDNJ increased cellular levels of wild-type β-Hex while deoxygalactonojirimycin (DGJ), a pharmacological chaperone for the lysosomal enzyme acid α-galactosidase, had no effect on β-Hex levels.

[2] = biological target: T2, Neu 3 (Homo sapiens, UniProt Q9UQ49); settings: marked *: Values reported in the literature; cited from earlier work
T2 sequence (Q9UQ49 1-428): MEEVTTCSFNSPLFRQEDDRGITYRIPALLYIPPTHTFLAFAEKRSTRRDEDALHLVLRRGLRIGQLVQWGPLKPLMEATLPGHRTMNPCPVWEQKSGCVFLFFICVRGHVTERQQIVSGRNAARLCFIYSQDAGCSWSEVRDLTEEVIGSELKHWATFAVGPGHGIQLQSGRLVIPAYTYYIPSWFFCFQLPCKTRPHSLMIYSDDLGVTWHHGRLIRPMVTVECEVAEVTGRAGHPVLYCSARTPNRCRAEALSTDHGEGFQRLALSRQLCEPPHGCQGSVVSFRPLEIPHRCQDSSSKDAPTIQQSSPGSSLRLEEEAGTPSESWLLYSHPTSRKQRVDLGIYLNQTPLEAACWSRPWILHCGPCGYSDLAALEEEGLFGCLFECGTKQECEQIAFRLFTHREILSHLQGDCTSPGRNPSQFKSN

[3] = biological target: Neu 2 (Homo sapiens, UniProt Q9Y3R4); settings: marked *: Values reported in the literature; cited from earlier work
Chain of Neu 2 (Q9Y3R4 whole entry): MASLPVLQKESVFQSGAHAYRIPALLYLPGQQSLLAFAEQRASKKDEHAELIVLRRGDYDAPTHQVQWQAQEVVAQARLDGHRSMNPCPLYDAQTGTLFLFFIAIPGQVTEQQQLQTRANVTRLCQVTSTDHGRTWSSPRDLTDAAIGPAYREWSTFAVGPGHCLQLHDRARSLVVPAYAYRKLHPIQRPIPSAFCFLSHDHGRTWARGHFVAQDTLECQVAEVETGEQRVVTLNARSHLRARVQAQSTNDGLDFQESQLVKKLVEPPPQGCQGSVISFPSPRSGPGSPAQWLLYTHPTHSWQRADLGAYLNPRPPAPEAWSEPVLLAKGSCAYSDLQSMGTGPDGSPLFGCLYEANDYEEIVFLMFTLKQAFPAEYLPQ

[4] = biological target: T3, Neu 4 (Homo sapiens, UniProt Q8WWR8); settings: marked *: Values reported in the literature; cited from earlier work
T3 sequence (Q8WWR8 1-484): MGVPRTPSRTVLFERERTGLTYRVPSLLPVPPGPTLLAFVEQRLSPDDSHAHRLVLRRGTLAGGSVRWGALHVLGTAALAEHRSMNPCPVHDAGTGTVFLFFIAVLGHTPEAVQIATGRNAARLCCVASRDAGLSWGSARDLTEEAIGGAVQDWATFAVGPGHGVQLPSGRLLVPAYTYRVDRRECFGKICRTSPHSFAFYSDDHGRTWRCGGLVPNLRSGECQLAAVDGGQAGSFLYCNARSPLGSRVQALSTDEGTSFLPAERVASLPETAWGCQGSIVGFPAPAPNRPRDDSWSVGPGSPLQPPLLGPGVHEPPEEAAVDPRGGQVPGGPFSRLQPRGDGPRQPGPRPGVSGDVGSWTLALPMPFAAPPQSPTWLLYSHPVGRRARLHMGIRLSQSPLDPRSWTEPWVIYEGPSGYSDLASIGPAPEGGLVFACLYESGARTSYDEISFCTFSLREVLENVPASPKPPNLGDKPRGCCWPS

[5] = biological target: T4, Neu 1 (Homo sapiens, UniProt Q99519); settings: marked *: Values reported in the literature; cited from earlier work
[6] = biological target: T4, Neu 1; experiment: Comparative selectivity: Neu 1 inhibition; assay type: biochemical
[7] = biological target: T5, wild-type endogenous neuraminidase 1 (Homo sapiens, UniProt Q99519); experiment: Neuraminidase 1 levels in fibroblasts derived from healthy individuals; assay type: cell-based; settings: 5 days
T5 construct: selectively increases wild-type endogenous neuraminidase-1 levels in fibroblasts; endogenous in cells; host or cells: healthy control fibroblasts
Description: The data shown in FIG. 7 was generated as follows. Healthy control fibroblasts were treated for 5 days either with NB-DANA or IFG. The cells were scraped, harvested by centrifugation, and the cell pellet was solubilized using RIPA buffer (1% TX100, 0.5% Taurodeoxycholate, and 0.1% SDS in TBS plus protease inhibitors). The cell lysate was immunoblotted using a polyclonal antibody specific for Neu1 (Novus).
(A) The pharmacological chaperone NB-DANA increased wild-type endogenous neuraminidase 1 levels by up to 2 fold. […] Fibroblasts derived from healthy individuals were treated with NB-DANA or IFG for 5 days and enzyme activity was measured in cell lysates using the substrate NANA-4-MU. Enzyme activity was expressed as nmol of 4-MU generated per mg protein per hour.

[8] = test system: sAPPα; experiment: sAPPα shedding by N2A mouse neuroblastomas (22C11 immunoblot of media); assay type: cell-based; settings: 10 μM, 3 days
Description: as §1, §2

[9] = biological target: B-Hex (β-hexosaminidase, Hex A/B); experiment: Comparative selectivity of pharmacological chaperones: B-Hex inhibition; assay type: biochemical; settings: marked **: Values reported as Ki's; read-out: IC50 B-Hex, values reported as Ki's
[10] = test system: sAPPα; experiment: sAPPα production by fibroblasts treated with NB-DGJ (6E10 immunoblot); assay type: cell-based, human; settings: Sandhoff fibroblasts, 5 days treatment
Description: The data shown in FIG. 3 was generated as follows. A wild type(healthy) fibroblast cell line (CRL2076; Coriell) and a fibroblast cell line from a Sandhoff patient (GM11707; Coriell) were cultured overnight in DMEM (plus 10% FBS) growth medium, followed by an overnight incubation in serum free media. Secreted proteins were collected by TCA precipitation (12.5%) of the growth media and analyzed by immunoblotting using 6E10 antibody (Covance) to determine the levels of sAPPα. […] To measure levels of secreted Aβ40 in media, fibroblasts (CRL2076 & GM11707) were cultured overnight in DMEM (plus 10% FBS) growth medium (3 wells/sample; 1 ml media/well), followed by an overnight incubation in serum free media. The 3 wells/sample were combined and mixed with 0.3 ml methanol, 30 μl 10% TFA (Trifluoroacetic acid). The samples were pre-concentrated using a Sepak C18 column (Waters) and then used in an ELISA assay (Covance) to determine the levels of Aβ40. To determine the levels of full length APP, fibroblasts (CRL2076 & GM11707) were cultured overnight in DMEM (plus 10% FBS) growth medium. […] Secreted proteins were collected by TCA precipitation (12.5%) of the growth media and analyzed by immunoblotting using 6E10 antibody (Covance) to determine the levels of sAPPα. […]

With OC[C@H]1NC[C@H](O)[C@@H](O)[C@H]1O [DGJ, deoxygalactonojirimycin, reference compound] the “cellular levels of wild-type β-Hex” value [1] was “no effect”.
For CC(=O)N[C@H]1[C@H]([C@H](O)[C@H](O)CO)OC(C(=O)Oc2ccccc2)=C[C@@H]1O [Phenyl DANA, Phenyl 2-deoxy-2,3-dehydro-N-acetylneuraminic acid, reference compound], the IC50 [2] is given as 320 µM, the IC50 [3] is given as 865 µM and the IC50 [4] is given as 810 µM. The IC50 [5] was 13 µM.
In the case of CCCCOC(=O)C1=C[C@H](O)[C@@H](NC(C)=O)[C@H]([C@H](O)[C@H](O)CO)O1 [NB-DANA, n-butyl-2-deoxy-2,3-dehydro-N-acetylneuraminic acid], the IC50 [2] is listed as > 1000 µM, the IC50 [6] is listed as 10 µM and the IC50 [3] is listed as > 1000 µM. The IC50 [4] was > 1000 µM and the “increase of wild-type endogenous neuraminidase 1 levels” value [7] was “up to 2 fold”.
For OC[C@H]1CNC[C@@H](O)[C@@H]1O [IFG, isofagomine, reference compound], the “effect on wild-type neuraminidase 1 levels” value [7] was “does not increase”.
For CC(=O)N[C@H]1CN[C@H](CO)[C@@H](O)[C@@H]1O [AdDNJ, 2-acetamido-1,2-dideoxynojirimycin], the “cellular levels of wild-type β-Hex” value [1] was “increased”, the “shedding of neurotrophic sAPPα” value [8] was “increased” and the Ki [9] was 0.7 µM.
In the case of CC(=O)N[C@H]1[C@H]([C@H](O)[C@H](O)CO)OC(C(=O)O)=C[C@@H]1O [DANA, 2-deoxy-2,3-dehydro-N-acetylneuraminic acid], the IC50 [2] is given as 61 µM.
For “5-(acetylamino)-4-[(aminoiminomethyl)-amino]-2,6-anhydro-3,4,5-trideoxy-D-glycero-D-galacto-non-2-enonic acid [Zanamivir]”, the IC50 [5] is given as 2710 µM.
With CCCCN1C[C@H](O)[C@@H](O)[C@@H](O)[C@H]1CO [N-butyl-deoxygalactonojirimycin] the “increase in production of sAPPα” value [10] was 35-40%.
